Laboratory results published in US20070287666A1, “Modulator of gamma-secretase” (priority 2006, published 2007).

Assays:
ε-secretase = experiment: Cadherin processing assay; format: biochemical; details: in words
Description: Notch and cadherin cleavage assays were performed as described previously (27, 29).
Cadherin processing assay: Assays were performed as previously described (29). Briefly, cells were resuspended in 0.5 ml/35-mm dish of hypotonic buffer (10 mM MOPS, pH 7.0, 10 mM KCl) and homogenized on ice. A post-nuclear supernatant was prepared by centrifugation at 1000×g for 15 minutes at 4° C. Crude membranes were isolated from the post-nuclear supernatant by centrifugation at 16,000×g for 40 minutes at 4° C. The membranes were then resuspended in 25 μl of assay buffer (150 mM sodium citrate, pH 6.4, 1× Complete protease inhibitor cocktail, Roche), and incubated at 37° C. for 4 hours in the presence or absence of γ-secretase inhibitor (L-685,458, 1 μM). Samples were then analyzed by immunoblotting using C32 anti-N-cadherin and C36 anti-E-cadherin antibodies (BD Transduction Laboratories).

γ-secretase [1] = experiment: Aβ assay (ELISA, immunoprecipitation-western blotting) of conditioned medium from whole cells; format: cell-based, human; details: whole cells or cell-free γ-secretase assays; in words
Description: Aβ40 and Aβ42 levels were measured by ELISA and immunoprecipitation-western blotting as described previously, with the use of 12-24-h-conditioned medium collected from native HEK-293 cells or from HEK-293 cells stably overexpressing APP (APPswedish or APPwt) (3,24). They were resuspended in Assay Buffer (10 mM KOAc, 1.5 mM MgCl2, protease inhibitors (Roche), 75 mM sodium citrate, pH 6.4) and incubated at 0° C. or 37° C. for 2 or 4 hours (24). CHAPSO-solubilized membrane fractions from above cells were subjected to cell free γ-secretase assay as described below without addition of the C100-Flag substrate. Following adjustment to RIPA buffer, Aβ were captured by immmunoprecipitation with 6E10 antibody (Signet) and immunoblotted as described previously (24). ε-stubs were detected by Western blotting with anti-APP-CT antibody (Sigma).

TMP21 = experiment: Western blotting of target protein expression after siRNA knockdown; format: cell-based, human; details: whole cells; in words
Description: siRNA-based knockdowns of target proteins were performed as described, in HEK-293 or blastocyst-derived cells (30). The oligonucleotide sequences are available in Supplementary Information.
siRNA-based knockdowns of target proteins were carried out as described (30). […] As negative controls, we used a mixture of four pooled scrambled siRNAs and mock transfections without siRNA. The expression level of target proteins was monitored by Western blotting with polyclonal anti-TMP21 or anti-p24a antibodies. Each of the individual oligonucleotide pairs where independently shown to suppress the relevant target protein (FIG. 8).

γ-secretase [2] = molecular target: T1, γ-secretase (Homo sapiens, UniProt P49768); experiment: γ-secretase reconstituted in yeast, APPC1-55/Gal4 lacZ reporter assay; format: cell-based, S. cerevisiae; parameters: expressed in transfected cells; host or cells: S. cerevisiae (strains PMY1 and DEY1); details: co-expression with PS1, NCT, APH-1, PEN-2; wt or V717I APP reporter; in words
Excerpt: Core γ-secretase enzyme activity of the mammalian CNS was reconstituted in S. cerevisiae by co-expression of human presenilin 1 (PS1), nicastrin (NCT), APH-1 and PEN-2 in accordance with the method described by Edbauer (12), with activity measured via endoproteolytic release of a Gal4 transcriptional activator from an APPC1-55 juxtamembrane region and trans activation of a β-galactosidase reporter gene. While a starting configuration performed slightly above the baseline of cells lacking γ-secretase subunits, non-fermentable carbon sources favoring oxidative metabolism increased output up to 100-fold and allowed profiling of the system. As in mammalian cells, activity was greater with wt PS1 than wt PS2, sensitive to missense mutations of APP substrate near the Aβ42 site, and was modulated by the membrane protein TMP21.
Besides the production of Aβ-related peptide fragments identified by mass spectroscopy, enzyme activity was measured via a transcriptional reporter assay wherein endoproteolysis of a membrane-tethered APPC1-55/Gal4 fusion protein results in the release of a Gal4 transcriptional activator capable of driving a reporter gene (lacZ) with a colorimetric output. Effect of TMP21, Erv25p and Emp24p on reporter activity and PS1 processing

γ-secretase [3] = molecular target: T1, γ-secretase; experiment: Cell-free γ-secretase assay with immunopurified PS1 complexes and C100-Flag substrate; format: biochemical; parameters: PS1 complex was isolated by immunoprecipitation from CHAPSO extracted membranes; endogenous in cells; host or cells: HEK-293 (also SHSY-5Y) CHAPSO-solubilized membranes, anti-PS1 (A4) immunoprecipitate; details: exogenous protein added to immunopurified TMP21-deficient PS1 complexes; in words
Description: Cell-free γ-secretase assays with endogenous APP were performed on microsome membranes from HEK-293 cells stably over expressing APPswedish with or without TMP21 RNAi treatments as described previously (24). ε-stubs were detected by western blotting with anti-APP-CT antibody (Sigma). Cell-free γ-secretase assay was performed as described (7, 13), with exogenous APP-C100 as the substrate was performed with recombinant APP-C100 peptides, wherein PS1 complex was isolated by immunoprecipitation from CHAPSO extracted membranes and combined with the recombinant C100 substrate and the generation of Aβ is determined by ELISA and AICD production is monitored by western blotting. More particularly, the peptides were generated from a prokaryotic expression vector encoding the C-terminal 100 amino acids (596-695) of human APP (695-residue isoform) followed by Flag and His6 sequences (C100-Flag-His6). This was generated by PCR and cloning into pQE60 (Qiagen). […] The generated Aβ was analyzed by immunoblotting or ELISA (Biosource).
Solubilized γ-secretase was prepared as described (7,13). […] Following addition of the C100-Flag substrate (˜0.5 μM) to 50 μl of the solubilized γ-secretase preparation the reaction mixture was incubated for 6 hrs at 37° C. and Aβ products detected by ELISA and Western blotting. […]

Molecule: CC(C)C[C@H](NC(=O)[C@H](Cc1ccccc1)C[C@@H](O)[C@H](Cc1ccccc1)NC(=O)OC(C)(C)C)C(=O)N[C@@H](Cc1ccccc1)C(N)=O [L685,458]
- ε-cleavage of E-cadherin or N-cadherin substrates (CAD/CTF1) to CAD/CTF2 (ε-secretase): specifically inhibited

Molecule: p24a siRNA: p24a siRNA oligos (SEQ ID NO:12, 13) and p24a pooled oligos, Dharmacon (chain 1 AACCGGATGTCCACCATGACT; chain 2 ACAGAGCCATCAACGACAA; bought from Dharmacon, further chemistry not given here)
- effect on Aβ production (γ-secretase [1]): no effect
- total cellular TMP21 levels / expression (TMP21): decrease

B1: TMP21: 219-amino-acid type 1 transmembrane protein, member of the p24 cargo-protein family (accession number Q9D1D4); expressed from cDNA (protein, UniProt Q9D1D4 32-219, looked up)
Transmembrane emp24 …: ISFHLPVNSRKCLREEIHKDLLVTGAYEITDQSGGAGGLRTHLKITDSAGHILYAKEDATKGKFAFTTEDYDMFEVCFESKGTGRIPDQLVILDMKHGVEAKNYEEIAKVEKLKPLEVELRRLEDLSESIVNDFAYMKKREEEMRDTNESTNTRVLYFSIFSMFCLIGLATWQVFYLRRFFKAKKLIE
- effect on Aβ production (γ-secretase [1]): no discernible effect
- lacZ reporter activity (γ-secretase [2]): markedly reduced

B2: TMP21-Flag: TMP21 tagged at the C terminus with the Flag epitope, immunopurified from HEK-293 cells (protein)
chain: ISFHLPINSRKCLREEIHKDLLVTGAYEISDQSGGAGGLRSHLKITDSAGHILYSKEDATKGKFAFTTEDYDMFEVCFESKGTGRIPDQLVILDMKHGVEAKNYEEIAKVEKLKPLEVELRRLEDLSESIVNDFAYMKKREEEMRDTNESTNTRVLYFSIFSMFCLIGLATWQVFYLRRFFKAKKLIE
modifications: left off: small tags and cut ends
- Aβ production after complementation of TMP21-deficient PS1 complexes (γ-secretase [3]): reverted to normal
